For this assay, the system named is Mef Efflux Pump of Streptococcus pneumoniae 3514 and Streptococcus pyogenes 26-00. Kind of assay: Two plate diffusion assay for macrolide (Mef) efflux pump inhibitors, azithromycin plate versus control plate. The assay is classed as cell-based. The conditions noted are these: zone of inhibition in antibiotic plate (method: azithromycin 0.5 mcg/ml; footnote: levofloxacin) minus water control plate; strain not given.
For the compound `COc1c(N2CCC(NC(=O)[C@H](C)NC(=O)OC(C)(C)C)C(C)(C)C2)c(F)cc2c(=O)c(C(=O)O)cn(C3CC3)c12.Cl` (stereo partly drawn) [Example 7 (Mef), 1-Cyclopropyl-6-fluoro-8-methoxy-1,4-dihydro-7-{4′-N-(t-butoxycarbonyl-L-alanyl)-amino-3′,3′-dimethylpiperidin-1-yl}-4-oxo-quinoline-3-carboxylic acid hydrochloride], the “Difference in Zone diameter Z1 (mm)” value came out at 7 mm.

On to `CCNC1CCN(c2c(F)c(C)c3c(=O)c(C(=O)O)cn(C4CC4)c3c2F)CC1(C)C` (stereo not drawn) [Example 28 (Mef), 1-Cyclopropyl-6,8-difluoro-5-methyl-1,4-dihydro-7-(3′,3′-dimethyl-4′-ethylaminopiperidin-1-yl)-4-oxo-quinoline-3-carboxylic acid], for which the “Difference in Zone diameter Z1 (mm)” value was determined as 10 mm.

In the case of `COc1c(N2CCC(NC3CC3)CC2)c(F)c(N)c2c(=O)c(C(=O)O)cn(C3CC3)c12` [Example 33 (Mef), 5-Amino-1-cyclopropyl-6-fluoro-8-methoxy-1,4-dihydro-7-(4′-cyclopropylaminopiperidin-1-yl)-4-oxo-quinoline-3-carboxylic acid], the “Difference in Zone diameter Z1 (mm)” value amounted to 10 mm.

As to `CC1CN(c2c(F)c(N)c3c(=O)c(C(=O)O)cn(C4CC4)c3c2F)CCC1N` (stereo not drawn) [Example 13 (Mef), 5-Amino-1-cyclopropyl-6,8-difluoro-1,4-dihydro-7-(4′-amino-3′-methylpiperidin-1-yl)-4-oxo-quinoline-3-carboxylic acid], the “Difference in Zone diameter Z1 (mm)” value was found to be 20 mm.

As to `CC1CCc2c(N3CC[C@@H](O)[C@H](C)C3)ccc3c(=O)c(C(=O)O)cn1c23` (mixture of isomers) [Example 41 (Mef), (RS)-(±)-6,7-dihydro-8-(trans-4′-hydroxy-3′-methylpiperidin-1-yl)-5-methyl-1-oxo-1H,5H-benzo[i,j]quinolizine-2-carboxylic acid], the “Difference in Zone diameter Z1 (mm)” value was determined as 10 mm.

In the case of `CCOC(=O)c1cn(-c2ccc(F)cc2F)c2nc(N3CCC(N)C(C)(C)C3)c(F)c(C)c2c1=O` (stereo not drawn) [Example 38 (Mef), Ethyl 1-(2,4-difluorophenyl)-6-fluoro-5-methyl-1,4-dihydro-7-(4-amino-3,3-dimethylpiperidin-1-yl)-4-oxo-1,8-naphthyridine-3-carboxylate], the “Difference in Zone diameter Z1 (mm)” value is recorded as 10 mm.

Turning to `O=C(O)c1cn(-c2ccc(F)cc2F)c2nc(N3C[C@@H]4[C@H](C3)[C@H]4NCc3ccccc3)c(F)cc2c1=O` [Example 23 (Mef), 1-(2,4-Difluorophenl)-6-fluoro-1,4-dihydro-7-{(1∝,5∝,6∝)-6-amino-N-benzyl-3-azabicyclo[3.1.0]hex-6-yl}-4-oxo-1,8-naphthyridine-3-carboxylic acid], the “Difference in Zone diameter Z1 (mm)” value is reported as 15 mm.

On to `CCNC1CCN(c2c(F)cc3c(=O)c(C(=O)O)cn4c3c2CC[C@@H]4C)CC1(C)C` (stereo partly drawn) [Example 30 (Mef), (S)-(−)-9-Fluoro-6,7-dihydro-8-(3′,3′-dimethyl-4′-ethylaminopiperidin-1-yl)-5-methyl-1-oxo-1H,5H-benzo[i,j]quinolizine-2-carboxylic acid], for which the “Difference in Zone diameter Z1 (mm)” value is listed as 8 mm.

Regarding `CC1CN(c2cc3c(cc2F)c(=O)c(C(=O)O)cn3C2CC2)CCC1N(C)C` (stereo not drawn) [Example 32 (Mef), 1-Cyclopropyl-6-fluoro-1,4-dihydro-7-(4′-dimethylamino-3′-methylpiperidin-1-yl)-4-oxo-quinoline-3-carboxylic acid], the “Difference in Zone diameter Z1 (mm)” value was found to be 8 mm.

With `CNC1CCN(c2cc3c(c(C)c2F)c(=O)c(C(=O)O)cn3-c2ccc(F)cc2F)CC1` [Example 19 (Mef), 1-(2′,4′-Difluorophenyl)-6-fluoro-5-methyl-1,4-dihydro-7-(4′-methylaminopiperidin-1′-yl)-4-oxo-quinoline-3-carboxylic acid], the “Difference in Zone diameter Z1 (mm)” value is 8 mm.

Consider `CCOC(=O)c1cn(-c2ccc(F)cc2F)c2nc(N3CCC(N)C(CC)C3)c(F)cc2c1=O` (stereo not drawn) [Example 36 (Mef), Ethyl 1-(2,4-difluorophenyl)-6-fluoro-1,4-dihydro-7-(4-amino-3-ethylpiperidin-1-yl)-4-oxo-1,8-naphthyridine-3-carboxylate], for which the “Difference in Zone diameter Z1 (mm)” value is reported as 10 mm.

`COc1c(N2CCC(NC(=O)[C@@H](NC(=O)OC(C)(C)C)C(C)C)C(C)(C)C2)c(F)cc2c(=O)c(C(=O)O)cn(C3CC3)c12` (stereo partly drawn) [Example 9 (Mef), 1-Cyclopropyl-6-fluoro-8-methoxy-1,4-dihydro-7-(3′,3′-dimethyl-4′-N-(t-butoxycarbonyl-L-valyl)-aminopiperidin-1-yl}-4-oxo-quinoline-3-carboxylic acid]: the “Difference in Zone diameter Z1 (mm)” value was found to be 5 mm.

Consider `C[C@H]1CCOc2c(N3CCC(N)CC3)c(F)cc3c(=O)c(C(=O)O)cn1c23.Cl` [Example 40 (Mef), 10-Fluoro-11-(4-aminopiperidin-1-yl)-3,4-dihydro-4(S)-methyl-8-oxo-2H,8H-pyrido[1,2,3-ef]-1,5-benzoxazepin-7-carboxylic acid, hydrochloride], for which the “Difference in Zone diameter Z1 (mm)” value was 13 mm.

Take `Cc1c(F)c(N2CCC(N)CC2)cc2c1c(=O)c(C(=O)O)cn2-c1ccc(F)cc1F` [Example 18 (Mef), 1-(2′,4′-Difluorophenyl)-6-fluoro-5-methyl-1,4-dihydro-7-(4′-aminopiperidin-1′-yl)-4-oxo-quinoline-3-carboxylic acid]: the “Difference in Zone diameter Z1 (mm)” value stood at 8 mm.

As to `CN1CCN(c2cc3c(cc2F)c(=O)c(C(=O)O)cn3-c2cccc(F)c2)CC1` [Example 16 (Mef), 1-(3′-Fluorophenyl)-6-fluoro-1,4-dihydro-7-(4′-methylpiperazin-1′-yl)-4-oxo-quinoline-3-carboxylic acid], the “Difference in Zone diameter Z1 (mm)” value worked out at 10 mm.

With `NC1CCN(c2nc3c(cc2F)c(=O)c(C(=O)O)cn3C2CC2)C1` (stereo not drawn) [Example 20 (Mef)], the “Difference in Zone diameter Z1 (mm)” value was 10 mm.

For the compound `COc1c(N2CCC(NC(=O)OC(C)(C)C)C(C)(C)C2)c(F)cc2c(=O)c(C(=O)OCc3ccccc3)cn(C3CC3)c12` (stereo not drawn) [Example 6 (Mef)], the “Difference in Zone diameter Z1 (mm)” value came out at 13 mm.

On to “(RS)-(±)-6,7-dihydro-8-(cis-4′-hydroxy-3′-methylpiperidin-1-yl)-5-methyl-1-oxo-1H,5H-benzo[i,j]quinolizine-2-carboxylic acid [Example 42 (Mef)]”, for which the “Difference in Zone diameter Z1 (mm)” value is given as 8 mm.

In the case of `COc1c(N2CCC(NC(=O)[C@@H](N)C(C)C)C(C)(C)C2)c(F)cc2c(=O)c(C(=O)O)cn(C3CC3)c12.Cl` (stereo partly drawn) [Example 10 (Mef), 1-Cyclopropyl-6-fluoro-8-methoxy-1,4-dihydro-7-(3′,3′-dimethyl-4′-L-valinylaminopiperidin-1-yl}-4-oxo-quinoline-3-carboxylic acid hydrochloride], the “Difference in Zone diameter Z1 (mm)” value stood at 8 mm.

Turning to `NCC1CN(c2cc3c(cc2F)c(=O)c(C(=O)O)cn3C2CC2)CCC1O` (stereo not drawn) [Example 31 (Mef), 1-Cyclopropyl-6-fluoro-1,4-dihydro-7-(3′-aminomethyl-4′-hydroxypiperidin 1-yl)-4-oxo-quinoline-3-carboxylic acid], the “Difference in Zone diameter Z1 (mm)” value was found to be 6 mm.

Consider `CCNC1CCN(c2c(F)cc3c(=O)c(C(=O)O)cn(CC)c3c2F)CC1` [Example 12 (Mef), 1-Ethyl-6,8-difluoro-1,4-dihydro-7-(4′-ethylaminouiperidin-1′-yl)-4-oxo-quinoline-3-carboxylic acid], for which the “Difference in Zone diameter Z1 (mm)” value is 18 mm.

The record behind these values is US7098219B2, “Inhibitors of cellular efflux pumps of microbes” (Wockhart Limited, priority 2000, dated 2006).
